# Patent publication US10912850B2, “18F-FNDP for pet imaging of soluble epoxide hydrolase (sEH)” (THE JOHNS HOPKINS UNIVERSITY, priority 2016, dated 2021)
# Values joined by “and” are separate entries in the source; they are usually repeats but may differ in a detail not shown here. Identical values can stand only once. Like-named read-outs stand apart in the source and are kept apart here.
# Legend:
# [1] = Molecular properties (log P); type: physicochemical
# [2] = Baseline regional brain biodistribution of 18F-FNDP in CD-1 mice; type: in vivo; details: for Regional distribution in CD-1 mouse brain (mean % ID/g tissue ± SD): n=3
# Procedure: Baseline study in CD1 mice. […] The brains were removed and dissected on ice. Striatum, cortex, hippocampus, hypothalamus, cerebellum and the rest of brain were weighed and their radioactivity content was determined in a γ-counter LKB/Wallac 1283 CompuGamma CS (Perkin Elmer, Bridgeport, Conn.). Aliquots of the injectate were prepared as standards and their radioactivity content was determined along with the tissue samples. The percent of injected dose per gram of tissue (% ID/g tissue) was calculated.
# sEH [3] = assay: Baboon dynamic PET imaging, baseline and blocking (SUV, VT, K1); details: for Time of regional TAC peak: post-injection; for Average K1 (rate constant for transfer from arterial plasma to tissue): two-tissue-three-compartment model
# Procedure: Dynamic baseline and blocking PET experiments (90 min) were performed on three male baboons (Papio anubis) weighing 23.9, 25.0 and 28.2 kg, using the High Resolution Research Tomograph (HRRT, CPS Innovations, Inc., Knoxville, Tenn.). […] Radiometabolite analysis in baboon arterial blood was performed under the general conditions published previously (Hilton et al., Nucl. Med. Biol., 2000).
# PET experiments were performed on a male baboon (Papio anubis) weighing 28.2 kg, using the High Resolution Research Tomograph (HRRT, CPS Innovations, Inc., Knoxville, Tenn.). The animal underwent one baseline PET scan and one blocking scan 3 weeks later. The animal was fasted for 12 h prior to each PET study. Anesthesia was induced with intramuscular ketamine (7.5-10 mg/kg) and maintained with a continuous intravenous infusion of propofol at 0.3-0.4 mg/kg/min throughout the PET experiment. One venous catheter was inserted for the radioligand injection, and one arterial catheter inserted to obtain arterial blood samples. Measurement of the arterial plasma input function was conducted through collection of 43 blood samples over the course of the 90 min dynamic PET scan. The baboon was also intubated to facilitate respiration, and circulatory volume was maintained by constant infusion of isotonic saline. Physiological vital signs including heart rate, blood pressure, electrocardiogram, and oxygen saturation were monitored continuously throughout the study.
# The animal was positioned in the PET scanner with the head immobilized with a thermoplastic mask. A 6 min transmission scan was acquired using a rotating [^137Cs] cesium source for attenuation correction.
# The 90 min PET list mode data were binned into 22 frames (three 20 s, two 30 s, two 1 min, three 2 min, eight 5 min, and four 10 min frames). The data were then reconstructed using the iterative ordered subsets expectation maximization (OS-EM) algorithm (with six iterations and 16 subsets), with correction for radioactive decay, dead time, attenuation, scatter and randoms. The attenuation maps were generated from 6 min transmission scans performed with a [^137Cs] cesium point source prior to the emission scans. The reconstructed image space consisted of cubic voxels, each 1.22 mm^3 in size, and spanning dimensions of 31 cm×31 cm (transaxially) and 25 cm (axially).
# The software package PMOD (v3.3, PMOD Technologies Ltd, Zurich, Switzerland) was used for the following image processing and subsequent kinetic analysis steps. The previously acquired brain MRI T1-weighted images for the baboon were co-registered to the reconstructed dynamic PET images acquired in this study. Through manually matching the co-registered MRI to the INIA19 Template and NeuroMaps Atlas for Primate Brain Image Parcellation and Spatial Normalization (Rohlfing et al., Frontiers in neuroinformatics, 2012), 13 representative baboon brain VOIs were defined, including frontal and temporal gyms, thalamus, hippocampus, caudate, putamen, amygdala, globus pallidus, insula, hypothalamus, cerebellum, corpus callosum, and white matter. Brain regional TACs were then generated for both baseline and blocking PET scans using those VOIs.
# Following the consensus nomenclature for in vivo imaging of reversibly binding radioligands (Innis et al., J. Cereb. Blood Flow Metab., 2007), due to the lack of a non-displaceable reference region, the main outcome measure was regional distribution volume (VT), defined as the ratio of the concentration of the radioligand in regional brain tissue to that in plasma at equilibrium. Regional VT is proportional to the receptor density in the defined VOL VT was calculated using the Logan graphical method for each VOI (Logan et al., J. Cereb. Blood Flow Metab., 1990).
# [4] = Radiometabolite HPLC analysis of baboon arterial plasma; type: in vivo, Papio anubis (baboon); details: 90 min post-injection
# Procedure: Baboon arterial blood samples were collected at very short intervals (<5 s) initially and gradually at prolonged intervals throughout the PET study for determination of plasma radioactivity. […] Med. Biol., 2000). […] The effluent from the capture column, containing only highly polar components, flowed through a dual BGO detector (Bioscan, Washington, D.C.). The solvent was then switched to a mixture of 60% acetonitrile/40% 0.1 M aqueous ammonium formate pH=2.7 (2 mL/min) to elute the radiolabeled components bound to the capture column onto the analytical column (Gemini C18, 4.6×254 mm, Phenomenex, Torrance, Calif.).
# sEH [5] = type: in vivo, mice (sEH-KO, C57BL/6); details: for Regional uptake, baseline: C57BL6 control mice, 60 min post-injection
# Procedure: All animals were sacrificed at 60 min after radiotracer injection.
# sEH [6] = target: T1, sEH (Mus musculus, UniProt P34914); assay: Blocking of 18F-FNDP binding in CD-1 mice with nor-fluoro-FNDP (dose escalation); type: in vivo
# T1 construct: from tissue; host or cells: brain of living CD-1 mice (striatum, cortex, hippocampus, cerebellum)
# T1 sequence (P34914 1-554): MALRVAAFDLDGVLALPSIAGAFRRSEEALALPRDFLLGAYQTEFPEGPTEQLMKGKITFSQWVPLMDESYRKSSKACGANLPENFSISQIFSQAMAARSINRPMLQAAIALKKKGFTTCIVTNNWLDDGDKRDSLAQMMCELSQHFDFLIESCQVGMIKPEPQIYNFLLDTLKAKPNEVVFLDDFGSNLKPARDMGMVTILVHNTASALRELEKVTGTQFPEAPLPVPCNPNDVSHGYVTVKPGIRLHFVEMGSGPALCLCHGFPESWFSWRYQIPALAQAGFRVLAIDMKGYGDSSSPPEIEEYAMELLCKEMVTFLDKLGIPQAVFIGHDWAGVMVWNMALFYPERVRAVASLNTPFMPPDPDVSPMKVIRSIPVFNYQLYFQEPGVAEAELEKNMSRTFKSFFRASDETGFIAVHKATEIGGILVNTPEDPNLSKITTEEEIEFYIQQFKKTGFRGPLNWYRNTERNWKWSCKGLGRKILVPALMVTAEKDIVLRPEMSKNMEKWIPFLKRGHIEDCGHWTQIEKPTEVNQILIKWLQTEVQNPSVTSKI
# Procedure: Ninety minutes after administration of the radiotracer the animals were sacrificed by cervical dislocation, brain tissues were harvested, and their radioactivity content was determined.
structure (smiles),measurement,setting,value
"O=C(NCCC(c1ccccc1)c1ccccc1)c1ccc(F)nc1 [FNDP, N-(3,3-diphenylpropyl)-6-fluoronicotinamide]",log P,[1],2.9
"O=C(NCCC(c1ccccc1)c1ccccc1)c1ccc([18F])nc1 [^18F-FNDP, N-(3,3-diphenylpropyl)-6-^18F-fluoronicotinamide]",Peak brain uptake,"[2]; CD-1 mice, at peak uptake",5.2 percent injected dose per gram of tissue
same,Regional distribution in CD-1 mouse brain (mean % ID/g tissue ± SD),"[2]; Cerebellum, 5 min",2.75 ± 0.11 % ID/g tissue
same,Regional distribution in CD-1 mouse brain (mean % ID/g tissue ± SD),"[2]; Cerebellum, 15 min",1.31 ± 1.01 % ID/g tissue
same,Regional distribution in CD-1 mouse brain (mean % ID/g tissue ± SD),"[2]; Cerebellum, 30 min",1.09 ± 0.16 % ID/g tissue
same,Regional distribution in CD-1 mouse brain (mean % ID/g tissue ± SD),"[2]; Cerebellum, 60 min",0.52 ± 0.07 % ID/g tissue
same,Regional distribution in CD-1 mouse brain (mean % ID/g tissue ± SD),"[2]; Cerebellum, 90 min",0.29 ± 0.04 % ID/g tissue
same,Regional distribution in CD-1 mouse brain (mean % ID/g tissue ± SD),"[2]; Cortex, 5 min",4.69 ± 0.21 % ID/g tissue
same,Regional distribution in CD-1 mouse brain (mean % ID/g tissue ± SD),"[2]; Cortex, 15 min",2.92 ± 0.36 % ID/g tissue
same,Regional distribution in CD-1 mouse brain (mean % ID/g tissue ± SD),"[2]; Cortex, 30 min",2.07 ± 0.05 % ID/g tissue
same,Regional distribution in CD-1 mouse brain (mean % ID/g tissue ± SD),"[2]; Cortex, 60 min",0.87 ± 0.14 % ID/g tissue
same,Regional distribution in CD-1 mouse brain (mean % ID/g tissue ± SD),"[2]; Cortex, 90 min",0.45 ± 0.05 % ID/g tissue
same,Regional distribution in CD-1 mouse brain (mean % ID/g tissue ± SD),"[2]; Hippocampus, 5 min",3.29 ± 0.54 % ID/g tissue
same,Regional distribution in CD-1 mouse brain (mean % ID/g tissue ± SD),"[2]; Hippocampus, 15 min",2.51 ± 0.34 % ID/g tissue
same,Regional distribution in CD-1 mouse brain (mean % ID/g tissue ± SD),"[2]; Hippocampus, 30 min",1.76 ± 0.15 % ID/g tissue
same,Regional distribution in CD-1 mouse brain (mean % ID/g tissue ± SD),"[2]; Hippocampus, 60 min",0.81 ± 0.15 % ID/g tissue
same,Regional distribution in CD-1 mouse brain (mean % ID/g tissue ± SD),"[2]; Hippocampus, 90 min",0.43 ± 0.06 % ID/g tissue
same,Regional distribution in CD-1 mouse brain (mean % ID/g tissue ± SD),"[2]; Hypothalamus, 5 min",2.59 ± 0.18 % ID/g tissue
same,Regional distribution in CD-1 mouse brain (mean % ID/g tissue ± SD),"[2]; Hypothalamus, 15 min",1.66 ± 0.28 % ID/g tissue
same,Regional distribution in CD-1 mouse brain (mean % ID/g tissue ± SD),"[2]; Hypothalamus, 30 min",1.04 ± 0.08 % ID/g tissue
same,Regional distribution in CD-1 mouse brain (mean % ID/g tissue ± SD),"[2]; Hypothalamus, 60 min",0.51 ± 0.07 % ID/g tissue
same,Regional distribution in CD-1 mouse brain (mean % ID/g tissue ± SD),"[2]; Hypothalamus, 90 min",0.31 ± 0.05 % ID/g tissue
same,Regional distribution in CD-1 mouse brain (mean % ID/g tissue ± SD),"[2]; Rest of brain, 5 min",3.53 ± 0.11 % ID/g tissue
same,Regional distribution in CD-1 mouse brain (mean % ID/g tissue ± SD),"[2]; Rest of brain, 15 min",2.37 ± 0.34 % ID/g tissue
same,Regional distribution in CD-1 mouse brain (mean % ID/g tissue ± SD),"[2]; Rest of brain, 30 min",1.64 ± 0.06 % ID/g tissue
same,Regional distribution in CD-1 mouse brain (mean % ID/g tissue ± SD),"[2]; Rest of brain, 60 min",0.71 ± 0.10 % ID/g tissue
same,Regional distribution in CD-1 mouse brain (mean % ID/g tissue ± SD),"[2]; Rest of brain, 90 min",0.38 ± 0.04 % ID/g tissue
same,Regional distribution in CD-1 mouse brain (mean % ID/g tissue ± SD),"[2]; Striatum, 5 min",5.24 ± 0.45 % ID/g tissue
same,Regional distribution in CD-1 mouse brain (mean % ID/g tissue ± SD),"[2]; Striatum, 15 min",3.29 ± 0.36 % ID/g tissue
same,Regional distribution in CD-1 mouse brain (mean % ID/g tissue ± SD),"[2]; Striatum, 30 min",2.32 ± 0.15 % ID/g tissue
same,Regional distribution in CD-1 mouse brain (mean % ID/g tissue ± SD),"[2]; Striatum, 60 min",1.07 ± 0.14 % ID/g tissue
same,Regional distribution in CD-1 mouse brain (mean % ID/g tissue ± SD),"[2]; Striatum, 90 min",0.54 ± 0.07 % ID/g tissue
same,Peak brain uptake value,"[2]; mouse brain, peak (5 min post-injection)",5.2 % ID/g and 5 % ID/g
same,Blockade of brain uptake,"sEH [3]; baboon PET, all regions",95%
same,Time of regional TAC peak,sEH [3]; baboon blocking study (nor-fluoro-FNDP 2 mg/kg s.c.),about 1 min
same,Average SUV at the end of the scan,"sEH [3]; baboon blocking study, end of 90 min scan",0.18 g/mL
same,Brain SUV,sEH [3]; baboon brain,4
same,Time of regional TAC peak,"sEH [3]; baboon brain, baseline scan",about 5 min
same,Peak SUV of the entire brain,"sEH [3]; baboon, baseline scan",3.2
same,SUV of the entire brain at the end of the scan,"sEH [3]; baboon, baseline, end of 90 min dynamic scan",1.8
same,Average K1 (rate constant for transfer from arterial plasma to tissue),"sEH [3]; baboon, baseline",0.18 ml/cm^3/min
same,Average K1 (rate constant for transfer from arterial plasma to tissue),"sEH [3]; baboon, blocking",0.14 ml/cm^3/min
same,"Reduction of VT, blocking vs baseline","sEH [3]; baboon, cerebellum",93%
same,Average SUV at end of blocking scan as percent of the baseline value,"sEH [3]; baboon, end of 90 min scan",10%
same,"Reduction of VT, blocking vs baseline","sEH [3]; baboon, insula and amygdala",95%
same,Specificity of sEH radiolabeling,sEH [3]; both animal species (mouse and baboon),up to 95%
same,Parent compound remaining in plasma,[4],20%
same,"Regional uptake, baseline",sEH [5]; cerebellum,0.5 % ID/g
same,"Regional uptake, baseline","sEH [5]; striatum, hippocampus and cortex",about 1 % ID/g
same,"Brain uptake, blocking experiment","sEH [5]; C57BL6 mice, all regions studied, nor-fluoro-FNDP 1 mg/kg s.c., 60 min",~0.2 % ID/g tissue
same,Blocking effect,"sEH [5]; C57BL/6 controls, nor-fluoro-FNDP 1 mg/kg s.c.",about 80%
same,Reduction of uptake in sEH-KO mice as compared with controls,"sEH [5]; baseline, 60 min after radiotracer injection, C57BL/6 controls",about 90%
same,Radiotracer uptake in sEH-KO mice,sEH [5]; sEH-KO mice,Minimal
same,"Regional brain uptake, baseline","sEH [5]; sEH-KO mice, 60 min",0.11-0.12 % ID/g
same,Reduction of uptake in blockade study,"sEH [5]; sEH-KO mice, blocker nor-fluoro-FNDP",negligible
same,"Regional brain uptake, blocking","sEH [5]; sEH-KO mice, nor-fluoro-FNDP 1 mg/kg s.c., 60 min",0.10-0.11 % ID/g
same,Brain uptake in sEH-KO mice lower than in controls,sEH [5]; sEH-KO vs controls,10 fold
same,Residual (non-specific) binding at the high dose of the blocker,"sEH [6]; CD-1 mouse brain, blocker nor-fluoro-FNDP",10%
same,Blockade of uptake,"sEH [6]; mice, all brain regions, pre-treatment with sEH inhibitor",80-90%
same,Degree of specificity of cerebral sEH labeling,sEH [6]; two strains of control mice (CD-1 and C57BL/6),80-90%
